Measured values published in ChEMBL document CHEMBL5113481, “Design, synthesis and biological evaluation of quinoline-2-carbonitrile-based hydroxamic acids as dual tubulin polymerization and histone deacetylases inhibitors” (Eur J Med Chem, 2022).
Converted amounts (≈) assume the structure as drawn. The source made the active and inactive calls. No cut-off for these calls is given here.

Experiments:
MIA PaCa-2 = assay: Antiproliferative activity against human MIA PaCa-2 cells after 72 hrs by CellTiter Glo assay; type: functional, cell-based; settings: MIA PaCa-2, 72 h
[1] = Metabolic stability in human liver microsomes assessed as intrinsic clearance per mg protein measured upto 6 hrs in presence of NADPH generating system by HPLC-MS/MS analysis; type: ADME, Microsome; settings: read-out: CLH
Tubulin (Homo sapiens) [2] = molecular target: T1, Tubulin (Homo sapiens) (UniProt P68371+Q9H4B7+P0DPH7+P68366+Q13509+Q71U36+P04350+Q3ZCM7+P07437+P68363+Q9BQE3+Q6PEY2+Q13885+Q9BVA1+Q9BUF5); assay: Inhibition of tubulin polymerization (unknown origin) at 10 uM in presence of GTP; type: protein-complex assay
[3] = molecular target: T2, Histone deacetylase 8 (Homo sapiens) (UniProt Q9BY41); assay: Inhibition of HDAC8 in human HT-29 cells assessed as increase in SMC3 acetylation at 0.5 to 100 nM measured after 30 mins by western blot analysis; type: cell-based; settings: dose 0.5-100 nM
T2 sequence (whole entry): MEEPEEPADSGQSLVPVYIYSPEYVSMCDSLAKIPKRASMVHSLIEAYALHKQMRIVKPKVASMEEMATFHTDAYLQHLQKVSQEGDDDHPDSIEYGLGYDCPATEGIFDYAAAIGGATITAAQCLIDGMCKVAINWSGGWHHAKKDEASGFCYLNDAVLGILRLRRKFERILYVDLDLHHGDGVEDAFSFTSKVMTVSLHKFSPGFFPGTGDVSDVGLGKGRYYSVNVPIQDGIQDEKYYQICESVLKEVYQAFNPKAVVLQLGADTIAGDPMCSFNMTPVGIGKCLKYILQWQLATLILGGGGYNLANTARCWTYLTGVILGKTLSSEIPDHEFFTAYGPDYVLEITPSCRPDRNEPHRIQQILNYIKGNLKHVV

Histone deacetylase 11 = molecular target: T3, Histone deacetylase 11 (Homo sapiens, UniProt Q96DB2); assay: Inhibition of HDAC11 (unknown origin) measured by fluorometry assay
T3 sequence (Q96DB2 whole entry): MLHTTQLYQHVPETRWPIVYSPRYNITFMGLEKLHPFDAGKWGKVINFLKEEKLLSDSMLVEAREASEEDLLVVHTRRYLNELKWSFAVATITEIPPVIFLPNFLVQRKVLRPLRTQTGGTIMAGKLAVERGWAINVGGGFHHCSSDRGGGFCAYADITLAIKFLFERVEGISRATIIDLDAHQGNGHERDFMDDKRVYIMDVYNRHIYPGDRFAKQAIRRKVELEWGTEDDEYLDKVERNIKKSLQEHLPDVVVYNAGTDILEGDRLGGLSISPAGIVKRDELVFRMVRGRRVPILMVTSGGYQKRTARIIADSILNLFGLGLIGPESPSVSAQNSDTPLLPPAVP

[4] = Toxicity in C57BL/6 mouse allografted with mouse MCA-205 cells assessed as effect on body weight at 0.1 to 0.5 mg/kg, IT(Intratumoral); type: organism-based; settings: in vivo, other, dose 0.1-0.5 mg/kg
MCF7 = assay: Antiproliferative activity against human MCF7 cells after 72 hrs by CellTiter Glo assay; type: functional, cell-based; settings: MCF7, 72 h
[5] = Solubility of compound in water; type: physicochemical
HCT-116 = assay: Antiproliferative activity against human HCT-116 cells after 72 hrs by CellTiter Glo assay; type: functional, cell-based; settings: Homo sapiens, HCT-116; time 72 hrs
[6] = Metabolic stability in human liver microsomes assessed as half-life measured upto 6 hrs in presence of NADPH generating system by HPLC-MS/MS analysis; type: ADME, Microsome
[7] = molecular target: T4, Protein deacetylase HDAC6 (Homo sapiens, UniProt Q9UBN7); assay: Inhibition of HDAC6 (unknown origin) measured by fluorometry assay
T4 sequence (Q9UBN7 whole entry): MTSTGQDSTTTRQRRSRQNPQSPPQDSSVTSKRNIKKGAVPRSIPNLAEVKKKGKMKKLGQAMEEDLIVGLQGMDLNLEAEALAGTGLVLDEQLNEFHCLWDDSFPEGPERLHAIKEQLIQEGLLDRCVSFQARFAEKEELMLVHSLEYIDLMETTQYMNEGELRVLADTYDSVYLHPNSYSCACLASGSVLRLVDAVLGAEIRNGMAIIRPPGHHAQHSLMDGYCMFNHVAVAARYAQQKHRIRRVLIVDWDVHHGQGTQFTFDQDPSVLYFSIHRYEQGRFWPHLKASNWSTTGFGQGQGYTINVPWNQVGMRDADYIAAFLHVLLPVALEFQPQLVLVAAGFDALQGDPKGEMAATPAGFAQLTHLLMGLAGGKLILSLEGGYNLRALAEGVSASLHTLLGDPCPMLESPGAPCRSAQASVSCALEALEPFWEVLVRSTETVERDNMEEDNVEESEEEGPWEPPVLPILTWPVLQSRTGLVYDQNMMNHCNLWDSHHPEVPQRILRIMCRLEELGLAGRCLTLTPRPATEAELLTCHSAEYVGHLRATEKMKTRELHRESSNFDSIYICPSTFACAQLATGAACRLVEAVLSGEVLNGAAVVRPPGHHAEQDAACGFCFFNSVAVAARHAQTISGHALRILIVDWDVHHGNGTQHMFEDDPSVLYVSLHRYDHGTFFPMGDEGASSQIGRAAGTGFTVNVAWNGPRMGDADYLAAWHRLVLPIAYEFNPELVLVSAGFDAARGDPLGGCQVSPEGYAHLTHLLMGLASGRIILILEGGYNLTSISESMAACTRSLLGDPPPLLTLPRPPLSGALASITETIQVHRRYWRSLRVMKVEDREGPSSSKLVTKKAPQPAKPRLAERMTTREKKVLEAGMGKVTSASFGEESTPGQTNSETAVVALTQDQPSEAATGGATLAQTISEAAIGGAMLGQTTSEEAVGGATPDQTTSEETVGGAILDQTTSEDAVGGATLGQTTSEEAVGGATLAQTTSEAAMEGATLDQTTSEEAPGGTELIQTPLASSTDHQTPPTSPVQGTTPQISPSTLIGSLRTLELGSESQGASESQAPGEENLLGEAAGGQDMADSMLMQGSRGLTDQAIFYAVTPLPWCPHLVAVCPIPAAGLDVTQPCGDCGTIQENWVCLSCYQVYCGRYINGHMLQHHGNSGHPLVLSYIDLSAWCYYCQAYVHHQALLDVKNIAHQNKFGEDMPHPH

[8] = Antitumor activity against mouse MCA-205 cells allografted in female C57BL/6 mouse assessed as increase in overall survival at 0.25 to 0.5 mg/kg, IT(Intratumoral); type: functional; settings: dose lower […], dose upper 0.5 mg/kg
HT-29 = assay: Cell cycle arrest in human HT-29 cells assessed as accumulation of cells in G2/M phase at 5 nM measured after 24 hrs by PI staining based flow cytometry method; type: functional
Tubulin (Homo sapiens) [9] = molecular target: T1, Tubulin (Homo sapiens); assay: Inhibition of tubulin polymerization in human HeLa cells assessed as microtubule network polymerization at 250 nM after 30 mins by immunofluorescence analysis; type: cell-based
NCI-N87 = assay: Antiproliferative activity against human NCI-N87 cells after 72 hrs by CellTiter Glo assay; type: functional, cell-based; settings: NCI-N87, 72 h

With `COc1ccc(N(C)c2cc(C#N)nc3ccccc23)cc1/C=C/C(=O)NO` as the molecule, how does the IC50 (MIA PaCa-2) read?
The IC50 was 0.94 nM.

What about the microsomal CLint [1] of the same molecule?
The microsomal CLint was 0.36 µL/min/mg.

What about the inhibition (Tubulin (Homo sapiens) [2]) of the same molecule?
The inhibition was “Active”.

And the inhibition [3]?
Its inhibition is “Active”.

What about the IC50 (Histone deacetylase 11) of the same molecule?
Its IC50 is 1900 nM.

And the Activity [4]?
Its Activity is “Non-Toxic”.

And the IC50 (MCF7)?
The IC50 was 0.78 nM.

What about the solubility [5] of the same molecule?
The solubility was 68.7 µg/mL (≈ 183 µM).

And the GI50 (HCT-116)?
Its GI50 is 0.5 nM.

What about the half-life [6] of the same molecule?
Its half-life is 32 h.

What about the IC50 [7] of the same molecule?
The IC50 was 1000 nM.

And the Activity [8]?
Its Activity is 60%.

And the Activity (HT-29)?
Its Activity is greater than 95%.

What about the inhibition (Tubulin (Homo sapiens) [9]) of the same molecule?
Its inhibition is “Active”.

What about the IC50 (NCI-N87) of the same molecule?
Its IC50 is 0.1 nM.
